{"source": "patent US20160271188A1", "about": "“PROBIOTIC AND PREBIOTIC COMPOSITIONS, AND METHODS OF USE THEREOF FOR TREATMENT OF GASTROINTESTINAL DISORDERS” (Epiva Biosciences, Inc., priority 2014, published 2016)", "key": {"[1]": {"tested_on": "human peripheral blood mononuclear cells (PBMCs)", "assay": "Cytokine release by human PBMCs incubated with commensal bacteria alone or with E. faecalis (Luminex)", "format": "cell-based", "conditions": "for overall anti-inflammatory cytokine profile for a Th-1-driven condition such as GVHD: alone and with EPV 8", "experimental": "An in vitro system was developed to efficiently test the inflammatory and immunomodulatory properties of different human commensal bacteria on human peripheral blood mononuclear cells (PBMCs). Experiments were carried out with 21 bacterial candidates to profile their anti-inflammatory properties against human PBMCs. The innate properties of bacteria alone on human PBMCs were tested as well as their ability to counteract the pro-inflammatory activity of Enterococcus feacalis.\nHuman PBMCs were isolated from fresh blood by density-gradient centrifugation using Ficoll (1-4). […] The results are presented in FIGS. 2-5 for all time points. […] The 24 h results are shown as a composite in FIG. 6 and with statistical analysis on individual cytokines in FIGS. 7-10. The results represent the properties of each bacterial species against human PBMCs and their ability to counteract inflammatory stimulation with E. faecalis in vitro."}, "microbiome of the gut": {"tested_on": "microbiome of the gut", "conditions": "mouse, in vivo", "from_the_text": "(§1) The trillions of organisms forming the microbiome function as an organ system interconnected throughout the body. The possibility that modification of the microbiome in a given physical location may influence the microbiome at other sites in the body (distal augmentation) was investigated. Seven week old C57Bl/6 female mice were acclimatized for 7 days prior to the start of the study by daily handling and shuffling between cages. All mice were housed at three mice per cage in individually vented cages (Thoren, Hazleton, Pa.). At day 0, baseline fresh fecal pellets, and vaginal lavages with 100 μL of sterile double-distilled water were collected and immediately frozen at −80° C. for microbiome analysis. […] Water alone is not expected to influence the microbiome and acted as a negative control. […] The impact of oral vancomycin is therefore expected to be limited to the gastrointestinal tract such that microbiome changes elsewhere in the body (e.g. vagina) would be attributable to distal augmentation. At day 6, fresh fecal pellets and vaginal lavages with 100 μL of sterile double-distilled water were collected and immediately stored at −80° C. for microbiome analysis.\n(§2) Isolation and sequencing of microbial DNA from the stool and vaginal samples was performed by DNA Genotek (Ottawa, ON, Canada). The V3-V4 region of the 16S ribosomal subunit was amplified with custom PCR primers and sequenced on an Illumina MiSeq to a minimum acceptable read depth of 25,000 sequences per sample. […] These OTU's were then assigned a curated taxonomic label based on the seven level SILVA taxonomy."}, "microbiome of the vagina": {"tested_on": "microbiome of the vagina", "conditions": "mouse, in vivo", "from_the_text": "as §1, §2"}, "[2]": {"conditions": "in vivo, po; cited from earlier work"}, "[3]": {"tested_on": "healthy, adult volunteers", "conditions": "human, in vivo", "experimental": "D-xylose is a carbon source generally preferred by anaerobic bacteria. […] A parallel, double-blind, 5 cohort escalation food safety study was conducted to examine D-xylose in normal human volunteers. The study was a double-blind, single-center, parallel group study designed to evaluate the tolerability and potential microbiome changes induced by ingestion of D-xylose at 5 different amounts in healthy, adult volunteers enrolled at 1 study center in the United States (US).\nSubjects were screened for eligibility within 21 days prior to the first planned ingestion of study sweetener on Day 1 (Baseline). […]\nSubjects returned to the study center weekly on Days 8, 15, 22, and 28 for ingestion, tolerability, and compliance evaluations. Safety was evaluated on a continual basis through adverse events (AE) monitoring, clinical laboratory measurements, vital sign monitoring, physical examinations, electrocardiograms (ECGs), telephone follow-up, and electronic subject ingestion diaries. Stool was collected pre-ingestion and at pre-specified time points, and post-ingestion samples were evaluated for changes in the gut microbiome compared with Baseline for all subjects. […]\nSafety was evaluated on a continual basis through AE monitoring, clinical laboratory measurements, vital sign monitoring, physical examinations, ECGs, telephone follow-up, and electronic subject ingestion diaries. […]"}, "gut microbiome [4]": {"tested_on": "gut microbiome", "assay": "Normal human volunteer study of D-xylose: changes in the gut microbiome (stool V3-V4 16S sequencing)", "format": "in vivo", "conditions": "for gut microbiome community composition: over time on study; for alpha diversity of the gut microbiome: regardless of ingestion amount"}, "[5]": {"assay": "Normal human volunteer study of D-xylose: serum and urine pharmacokinetics", "format": "in vivo", "from_the_text": "Blood and urine were collected at pre-specified pre- and post-ingestion time points to measure D-xylose levels and to characterize the systemic absorption profiles of D-xylose. Phoenix® WinNonLin®, Version 6.2.1, was used for PK analyses. Serum D-xylose concentrations were summarized by cohort using nominal sample times according to actual amount received using summary statistics (n, coefficient of variation [CV], mean, standard deviation [SD], median, minimum, and maximum). Evidence for the occurrence of steady-state was assessed graphically by comparing the time course of either trough or 2-hour post-ingestion serum concentrations of D-xylose as different levels of D-xylose. Accumulation was assessed by comparing the 2-hour post-first-ingestion serum levels with those observed at Week 2 (Day 15) and Week 4 (Day 28). […] Urine PK parameters for D-xylose levels included Ae(0-t) (cumulative amount of sweetener recovered in urine) and percent sweetener amount excreted over a 5-hour period."}, "gut microbiome [6]": {"tested_on": "gut microbiome", "conditions": "mouse, in vivo"}, "[7]": {"tested_on": "healthy, adult volunteers", "assay": "Normal human volunteer study of D-xylose: CRP, serum cytokines, T-cell markers", "format": "in vivo", "from_the_text": "Blood was collected at pre-specified pre- and post-ingestion time points to evaluate C-reactive protein (CRP), serum cytokines (tumor necrosis factor alpha [TNF-α], interleukin [IL]-2, IL-6, interferon gamma [IFN-γ], and IL-10), and T-cell markers CD3, CD4, CD8, CD25, and FOXP3. Plasma was also stored and may be tested for biomarkers and/or metabolic markers for up to 7 years.\nSummary statistics (n, mean, standard deviation, median, minimum, and maximum) were presented for serum concentrations of CRP, flow cytometry T-cell markers (CD3, CD4, CD8, CD25, and FOXP3), and cytokines (TNF-α, IL-2, IL-6, IFN-γ, and IL-10) as per their nominal time points."}, "tumors": {"tested_on": "tumors", "conditions": "oral administration; Sivan et al., Vetizou et al.; cited from earlier work"}}, "note": "“Also recorded” adds a separate entry of the source."}
{"molecule": "B. wexlerae [EPV5]", "values": [{"measurement": "overall anti-inflammatory cytokine profile for a Th-1-driven condition such as GVHD", "setting": "[1]", "result": "suboptimal anti-inflammatory profile for GVHD; also recorded: induces a suboptimal profile for GVHD"}]}
{"molecule": "CN[C@H](CC(C)C)C(=O)N[C@H]1C(=O)N[C@@H](CC(N)=O)C(=O)N[C@H]2C(=O)N[C@H]3C(=O)N[C@H](C(=O)N[C@H](C(=O)O)c4cc(O)cc(O)c4-c4cc3ccc4O)[C@H](O)c3ccc(c(Cl)c3)Oc3cc2cc(c3O[C@@H]2O[C@H](CO)[C@@H](O)[C@H](O)[C@H]2O[C@H]2C[C@](C)(N)[C@H](O)[C@H](C)O2)Oc2ccc(cc2Cl)[C@H]1O", "note": "[vancomycin]", "values": [{"measurement": "impact on the microbiome of the gut (PCA at family level)", "setting": "microbiome of the gut", "result": "strong impact on the microbiome of the gut"}, {"measurement": "median abundance of bacterial species in vaginal samples at day 6 that were not present at day 0", "setting": "microbiome of the vagina", "result": "approximately 0.00002%"}, {"measurement": "day 0 to day 6 pattern in vaginal samples (PCA)", "setting": "microbiome of the vagina; po", "result": "showed an overall difference"}, {"measurement": "absorption from the gut", "setting": "[2]", "result": "poorly absorbed from the gut"}]}
{"molecule": "O=C[C@H](O)[C@@H](O)[C@H](O)CO", "note": "[D-xylose]", "values": [{"measurement": "SAEs, severe AEs, deaths", "setting": "[3]", "result": "No SAEs, severe AEs, or subject deaths"}, {"measurement": "subjects who experienced at least 1 AE", "setting": "[3]; 28 days", "result": 38.9, "unit": "%"}, {"measurement": "Chao diversity index (community richness)", "setting": "gut microbiome [4]; over time", "result": "overall decrease in the Chao diversity index over time"}, {"measurement": "gut microbiome community composition", "setting": "gut microbiome [4]", "result": "no significant changes in community composition"}, {"measurement": "gut microbiome community composition", "setting": "gut microbiome [4]; listed as xylose", "result": "exerts subtle changes in the gut microbiome"}, {"measurement": "alpha diversity of the gut microbiome", "setting": "gut microbiome [4]; over time", "result": "no apparent significant impact on the intra-sample alpha diversity"}, {"measurement": "alpha diversity of the gut microbiome", "setting": "gut microbiome [4]; over time, listed as xylose", "result": "no major shifts in the microbiome alpha diversity"}, {"measurement": "ingested amount recovered in urine within 5 hours post-ingestion", "setting": "[5]; 1 g TID, Days 1, 15 and 28", "result": "approximately 40%"}, {"measurement": "serum D-xylose concentrations vs ingestion amount", "setting": "[5]; 1 to 15 g TID", "result": "increased linearly with increasing ingestion amounts"}, {"measurement": "accumulation ratio", "setting": "[5]; Day 15, 15 mg TID cohort", "result": "approximately 1.9 fold"}, {"measurement": "accumulation of serum D-xylose", "setting": "[5]; Day 15, 1 g to 12.5 g TID", "result": "Little to no accumulation"}, {"measurement": "accumulation ratio", "setting": "[5]; Day 28, 15 g TID", "result": 1.68}, {"measurement": "shifts in the gut microbiome", "setting": "gut microbiome [6]", "result": "did not cause major shifts in the gut microbiome but showed some differences at the family level"}, {"measurement": "serum interferon gamma over time", "setting": "[7]; 2 g and 15 g cohorts", "result": "trend for reduced levels of serum interferon gamma over time"}, {"measurement": "subjects with normal serum CRP at Baseline and at least 1 post-ingestion CRP value >2.9 mg/L", "setting": "[7]; all cohorts", "result": 8.3, "unit": "%"}, {"measurement": "total T-cells and T-cell subsets over time", "setting": "[7]; any ingestion amount", "result": "No consistent or clinically meaningful changes over time"}, {"measurement": "serum cytokines (TNF-α, IL-2, IL-6, IFN-γ, IL-10) over time", "setting": "[7]; most data points BLQ, any ingestion amount", "result": "did not indicate any consistent or clinically meaningful changes over time"}]}
{"molecule": "Bacteroides", "values": [{"measurement": "responsiveness to checkpoint inhibitor therapy in cancer", "setting": "tumors", "result": "increases the responsiveness to checkpoint inhibitor therapy"}]}
{"molecule": "Bifidobacterium", "values": [{"measurement": "responsiveness to checkpoint inhibitor therapy in cancer", "setting": "tumors", "result": "increases the responsiveness to checkpoint inhibitor therapy"}]}
{"molecule": "Lactobacillus", "values": [{"measurement": "responsiveness to checkpoint inhibitor therapy in cancer", "setting": "tumors", "result": "not"}]}
{"molecule": "B. luti [EPV3]", "values": [{"measurement": "intrinsic inflammatory activity (induction of pro-inflammatory cytokines) compared to EPV 8", "setting": "[1]", "result": "relatively low intrinsic inflammatory activity compared to EPV 8"}, {"measurement": "overall anti-inflammatory cytokine profile for a Th-1-driven condition such as GVHD", "setting": "[1]", "result": "significantly desirable anti-inflammatory profile; also recorded: capable of inducing a desirable anti-inflammatory cytokine profile"}, {"measurement": "ability to reduce induction of pro-inflammatory cytokines by EPV 8 (IL-6, MCP-1, IL-12p70, IFNγ)", "setting": "[1]; combination with EPV 8", "result": "able to reduce the induction of pro-inflammatory cytokines by EPV 8"}]}
